In PubChem BioAssay (NCI):
Where “and” joins values, the source holds several entries; their conditions need not be identical. Identical values can stand only once.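 These data come from cells grown in 96-well plates and exposed to compound for 48 hours at five concentrations. Here, GI50 denotes the concentration required for 50% inhibition of growth. The concentration for full growth arrest is given as TGI.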

How the values were obtained:
Assay in all cases: growth of human tumour cells (NCI), 48 h
[1] = tested on: 786-0 renal
[2] = tested on: A498 renal
[3] = tested on: A549 NSCLC
[4] = tested on: ACHN renal
[5] = tested on: BT-549 breast
[6] = tested on: CAKI-1 renal
[7] = tested on: CCRF-CEM leukemia
[8] = tested on: COLO 205 colon
[9] = tested on: DU-145 prostate
[10] = tested on: EKVX NSCLC
[11] = tested on: HCT-116 colon
[12] = tested on: HCT-15 colon
[13] = tested on: HL-60(TB) leukemia
[14] = tested on: HOP-62 NSCLC
[15] = tested on: HOP-92 NSCLC
[16] = tested on: HS 578T breast
[17] = tested on: HT29 colon
[18] = tested on: IGROV1 ovarian
[19] = tested on: K-562 leukemia
[20] = tested on: KM12 colon
[21] = tested on: LOX IMVI melanoma
[22] = tested on: M14 melanoma
[23] = tested on: MALME-3M melanoma
[24] = tested on: MCF7 breast
[25] = tested on: MDA-MB-231 breast
[26] = tested on: MDA-MB-435
[27] = tested on: MOLT-4 leukemia
[28] = tested on: NCI-H226 lung
[29] = tested on: NCI-H23 lung
[30] = tested on: NCI-H460 lung
[31] = tested on: NCI-H522 lung
[32] = tested on: NCI/ADR-RES ovarian
[33] = tested on: OVCAR-3 ovarian
[34] = tested on: OVCAR-4 ovarian
[35] = tested on: OVCAR-5 ovarian
[36] = tested on: OVCAR-8 ovarian
[37] = tested on: RPMI-8226 leukemia
[38] = tested on: RXF 393 renal
[39] = tested on: SF-268 CNS
[40] = tested on: SF-295 CNS
[41] = tested on: SF-539 CNS
[42] = tested on: SK-MEL-2 melanoma
[43] = tested on: SK-MEL-28 melanoma
[44] = tested on: SK-OV-3 ovarian
[45] = tested on: SN12C renal
[46] = tested on: SNB-19 CNS
[47] = tested on: SNB-75 CNS
[48] = tested on: SR leukemia
[49] = tested on: SW-620 colon
[50] = tested on: T-47D breast
[51] = tested on: U251 CNS
[52] = tested on: UACC-257 melanoma
[53] = tested on: UACC-62 melanoma
[54] = tested on: UO-31 renal

For `Nc1ccn([C@@H]2O[C@H](COP(=O)(O)O[C@@H]3C[C@H](n4cc(F)c(=O)[nH]c4=O)O[C@@H]3COP(=O)(O)O[C@@H]3C[C@H](n4cc(F)c(=O)[nH]c4=O)O[C@@H]3COP(=O)(O)O[C@@H]3C[C@H](n4cc(F)c(=O)[nH]c4=O)O[C@@H]3COP(=O)(O)O[C@@H]3C[C@H](n4cc(F)c(=O)[nH]c4=O)O[C@@H]3COP(=O)(O)O[C@@H]3C[C@H](n4cc(F)c(=O)[nH]c4=O)O[C@@H]3COP(=O)(O)O[C@@H]3C[C@H](n4cc(F)c(=O)[nH]c4=O)O[C@@H]3COP(=O)(O)O[C@@H]3C[C@H](n4cc(F)c(=O)[nH]c4=O)O[C@@H]3COP(=O)(O)O[C@@H]3C[C@H](n4cc(F)c(=O)[nH]c4=O)O[C@@H]3COP(=O)(O)O[C@@H]3C[C@H](n4cc(F)c(=O)[nH]c4=O)O[C@@H]3COP(=O)(O)O[C@@H]3C[C@H](n4cc(F)c(=O)[nH]c4=O)O[C@@H]3COP(=O)(O)OCCOCCOCCOCCOCCOCCO)[C@H](O)C2O)c(=O)n1` (stereo not given in full), the GI50 [1] was 0.00777 µM and 0.0131 µM, the TGI [1] was 21.1 µM and > 100 µM and the GI50 [2] was 0.0204 µM and 0.0631 µM. The TGI [2] was 21.1 µM and > 100 µM, the GI50 [3] was 0.00284 µM and the TGI [3] was 21.1 µM and > 100 µM. The GI50 [4] was 0.00745 µM, the TGI [4] was 21.1 µM and > 100 µM and the GI50 [5] was 0.674 µM and 0.568 µM. For the same compound, the TGI [5] was 21.1 µM and > 100 µM, the GI50 [6] was 0.00832 µM and the TGI [6] was 21.1 µM and > 100 µM. The GI50 [7] was 0.0101 µM and 0.0175 µM, the TGI [7] was 21.1 µM and > 100 µM and the GI50 [8] was 0.00973 µM. For the same compound, the TGI [8] was 21.1 µM and > 100 µM, the GI50 [9] was 0.0185 µM and 0.0254 µM and the TGI [9] was 21.1 µM and > 100 µM. For the same compound, the TGI [10] was greater than 100 µM, the GI50 [11] was 0.013 µM and the TGI [11] was 21.1 µM and > 100 µM. For the same compound, the GI50 [12] was 0.697 µM and 0.179 µM, the TGI [12] was 21.1 µM and > 100 µM and the TGI [13] was 21.1 µM and > 100 µM. The GI50 [14] was 0.00841 µM, the TGI [14] was 21.1 µM and > 100 µM and the GI50 [15] was 3.86 µM and 14.1 µM. For the same compound, the TGI [15] was 21.1 µM and > 100 µM, the GI50 [16] was greater than 100 µM and the TGI [16] was greater than 100 µM. The GI50 [17] was 0.0171 µM, the TGI [17] was 21.1 µM and > 100 µM and the GI50 [18] was 1.63 µM and 1.45 µM. For the same compound, the TGI [18] was 21.1 µM and > 100 µM, the GI50 [19] was 0.489 µM and 0.0858 µM and the TGI [19] was 21.1 µM and > 100 µM. It also gave a GI50 [20] of 0.178 µM, a TGI [20] of 21.1 µM and a GI50 [21] of 0.0054 µM. The TGI [21] was 21.1 µM and > 100 µM, the GI50 [22] was 0.00911 µM and 0.0126 µM and the TGI [22] was 2.56 µM and 4.9 µM. For the same compound, the GI50 [23] was 2.37 µM and 11.8 µM, the TGI [23] was 21.1 µM and > 100 µM and the GI50 [24] was 0.00211 µM. For the same compound, the TGI [24] was 21.1 µM and > 100 µM, the TGI [25] was 21.1 µM and > 100 µM and the GI50 [26] was 1.28 µM and 0.233 µM. The TGI [26] was 21.1 µM and > 100 µM, the GI50 [27] was 0.0246 µM and 0.0443 µM and the TGI [27] was 21.1 µM and > 100 µM. For the same compound, the GI50 [28] was 9.21 µM and 24.6 µM, the TGI [28] was 21.1 µM and > 100 µM and the GI50 [29] was 0.0255 µM and 0.0445 µM. For the same compound, the TGI [29] was 21.1 µM and > 100 µM, the GI50 [30] was 0.00211 µM and the TGI [30] was 21.1 µM and > 100 µM. The TGI [31] was 21.1 µM and > 100 µM, the GI50 [32] was 0.0146 µM and 0.0121 µM and the TGI [32] was 21.1 µM and > 100 µM. For the same compound, the GI50 [33] was greater than 100 µM, the TGI [33] was greater than 100 µM and the GI50 [34] was > 21.1 µM and 89.5 µM. The TGI [34] was greater than 100 µM, the GI50 [35] was greater than 100 µM and the TGI [35] was greater than 100 µM. For the same compound, the GI50 [36] was 0.0132 µM, the TGI [36] was 21.1 µM and > 100 µM and the GI50 [37] was 0.332 µM and 1.71 µM. The TGI [37] was 21.1 µM and > 100 µM, the GI50 [38] was 0.846 µM and 0.684 µM and the TGI [38] was 21.1 µM and 70.4 µM. The GI50 [39] was 0.00514 µM, the TGI [39] was 21.1 µM and > 100 µM and the GI50 [40] was 0.00328 µM. The TGI [40] was 21.1 µM and > 100 µM, the GI50 [41] was 0.00565 µM and the TGI [41] was 21.1 µM and > 100 µM. The TGI [42] was greater than 100 µM, the TGI [43] was 21.1 µM and > 100 µM and the GI50 [44] was 0.011 µM and 0.0185 µM. The TGI [44] was 21.1 µM and > 100 µM, the GI50 [45] was 0.0124 µM and the TGI [45] was 21.1 µM. For the same compound, the GI50 [46] was 0.0721 µM and 0.0219 µM, the TGI [46] was 21.1 µM and > 100 µM and the GI50 [47] was 4.33 µM and 10.3 µM. For the same compound, the TGI [47] was 21.1 µM and > 100 µM, the GI50 [48] was 0.621 µM and the TGI [48] was 21.1 µM and > 100 µM. The GI50 [49] was 4.23 µM and 2.6 µM, the TGI [49] was 21.1 µM and > 100 µM and the TGI [50] was 21.1 µM and > 100 µM. For the same compound, the GI50 [51] was 0.0101 µM, the TGI [51] was 21.1 µM and > 100 µM and the GI50 [52] was 0.11 µM and 0.062 µM. For the same compound, the TGI [52] was 21.1 µM and > 100 µM, the GI50 [53] was 0.00557 µM and 0.0279 µM and the GI50 [54] was 0.00659 µM. The TGI [54] was 6.57 µM and 7.3 µM.
